US10188634B2, “3-(3H-imidazo[4,5-C]pyridin-2-yl)-1 H-pyrazolo[4,3-B]pyridines and therapeutic uses thereof” (Samumed, LLC, priority 2015, dated 2019)

System: primary human mesenchymal stem cells (hMSCs)
Assay: Induction of chondrogenesis in primary human mesenchymal stem cells (hMSCs), nodule imaging with Rhodamine B / Nile Red
Format: cell-based
Settings: for Emax: hMSCs chondrogenesis, TGF-β3 (10 ng/mL) as positive control, read-out: Max. Activity as % TGF-β3 activity; for EC50: hMSCs, concentration required to induce 50% levels of chondrogenesis vs TGF-β3 positive control, read-out: Conc (nM) of 50% TGF-β3 activity
Procedure: Representative compounds were screened using primary human mesenchymal stem cells (hMSCs) to determine their ability to induce chondrogenesis (process by which cartilage is developed).
Human Mesenchymal Stem Cell Culture: Primary human mesenchymal stem cells (hMSCs) were purchased from Lonza (Walkersville, Md.) and expanded in Mesenchymal Stem Cell Growth Media (Lonza). Cells between passage 3 and 6 were used for the experiments.
Compound Screening: Each compound was dissolved in DMSO as a 10 mM stock and used to prepare compound source plates. For the 96 well assay, serial dilution (1:3, 6-point dose-response curves from 2700 nM to 10 nM) and compound transfer was performed using the ECHO 550 (Labcyte, Sunnyvale, Calif.) into 96-well clear bottom assay plates (Greiner Bio-One) with appropriate DMSO backfill for a final DMSO concentration of 0.03%. hMSCs were plated at 20,000 cells/well in 250 μL/well Incomplete Chondrogenic Induction Medium (Lonza; DMEM, dexamethasone, ascorbate, insulin-transferrin-selenium [ITS supplement], gentamycin-amphotericin [GA-1000], sodium pyruvate, proline and L-glutamine). TGF-β3 (10 ng/mL) was used as a positive control for differentiation while negative control wells were treated with 75 nL DMSO for normalization and calculating EC50 values. For the 384 well assay, serial dilution (1:3, 8-point dose-response curves from 5000 nM to 2.2 nM) and compound transfer was performed using the ECHO 550 (Labcyte, Sunnyvale, Calif.) into 384-well clear bottom assay plates (Greiner Bio-One) with appropriate DMSO backfill for a final DMSO concentration of 0.03%. hMSCs were plated at 8,000 cells/well in 80 μL/well Incomplete Chondrogenic Induction Medium (Lonza; DMEM, dexamethasone, ascorbate, insulin-transferrin-selenium [ITS supplement], gentamycin-amphotericin [GA-1000], sodium pyruvate, proline and L-glutamine). TGF-β3 (10 ng/mL) was used as a positive control for differentiation while negative control wells were treated with 25 nL DMSO for normalization and calculating EC50 values. Cells were incubated at 37° C. and 5% CO2 for 6 days. To image chondrogenic nodules, the cells were fixed using 4% formaldehyde (Electron Microscopy Sciences), and stained with 2 μg/mL Rhodamine B (Sigma-Aldrich) and 20 μM Nile Red (Sigma-Aldrich) [Johnson K., et.al, A Stem Cell-Based Approach to Cartilage Repair, Science, (2012), 336(6082). 717-721]. The nodules imaged (25 images per well for 96 well plates and 9 images per well for 384 well plates at 10× magnification) by excitation at 531 nm and emission at 625 nm and quantified using the CellInsight CX5 (Thermo Scientific). Area of nodules in each well was normalized to the average of 3 DMSO treated wells on the same plate using Excel (Microsoft Inc.). The normalized averages (fold change over DMSO) of 2 or 3 replicate wells for each compound concentration were calculated. Due to solubility limitations of some of the compounds, curve fitting was incomplete leading to inaccurate EC50 determinations.
Using TGF-β3 as a positive control, the concentration of representative compounds required to induce 50% levels of chondrogenesis is reported. In addition, the maximum activity of each compound and the respective dose that each compound reached maximum chondrogenesis activity is reported.

| Compound | Emax [%] | EC50 [nM] |
| --- | --- | --- |
| CCC(=O)Nc1cncc(-c2ccc3[nH]nc(-c4nc5c(-c6cccc(F)c6)cncc5[nH]4)c3n2)c1 [Compound 1, N-(5-(3-(7-(3-Fluorophenyl)-3H-imidazo[4,5-c]pyridin-2-yl)-1H-pyrazolo[4,3-b]pyridin-5-yl)pyridin-3-yl)propionamide] | 580 | 1670 |
| CC(C)CC(=O)Nc1cncc(-c2ccc3[nH]nc(-c4nc5c(-c6cccc(F)c6)cncc5[nH]4)c3n2)c1 [Compound 2, N-(5-(3-(7-(3-Fluorophenyl)-3H-imidazo[4,5-c]pyridin-2-yl)-1H-pyrazolo[4,3-b]pyridin-5-yl)pyridin-3-yl)-3-methylbutanamide] | 53 | 21 |
| Fc1cccc(-c2cncc3[nH]c(-c4n[nH]c5ccc(-c6ccncc6)nc45)nc23)c1 [Compound 18, 3-(7-(3-Fluorophenyl)-3H-imidazo[4,5-c]pyridin-2-yl)-5-(pyridin-4-yl)-1H-pyrazolo[4,3-b]pyridine] | 51 | 7 |
| O=C(Nc1cncc(-c2ccc3[nH]nc(-c4nc5c(-c6ccc(F)cc6)cncc5[nH]4)c3n2)c1)C1CCC1 [Compound 49, N-(5-(3-(7-(4-Fluorophenyl)-3H-imidazo[4,5-c]pyridin-2-yl)-1H-pyrazolo[4,3-b]pyridin-5-yl)pyridin-3-yl)cyclobutanecarboxamide] | 33 |  |
| Fc1ccc(-c2cncc3[nH]c(-c4n[nH]c5ccc(-c6cncnc6)nc45)nc23)cc1 [Compound 55, 3-(7-(4-Fluorophenyl)-3H-imidazo[4,5-c]pyridin-2-yl)-5-(pyrimidin-5-yl)-1H-pyrazolo[4,3-b]pyridine] | 125 | 100 |
| Nc1cncc(-c2ccc3[nH]nc(-c4nc5c(-c6ccccc6F)cncc5[nH]4)c3n2)c1 [Compound 59, 5-(3-(7-(2-Fluorophenyl)-3H-imidazo[4,5-c]pyridin-2-yl)-1H-pyrazolo[4,3-b]pyridin-5-yl)pyridin-3-amine] | 98 | 10 |
| CC(C)C(=O)Nc1cncc(-c2ccc3[nH]nc(-c4nc5c(-c6ccccc6F)cncc5[nH]4)c3n2)c1 [Compound 65, N-(5-(3-(7-(2-fluorophenyl)-3H-imidazo[4,5-c]pyridin-2-yl)-1H-pyrazolo[4,3-b]pyridin-5-yl)pyridin-3-yl)isobutyramide] | 181 | 10 |
| c1cncc(-c2ccc3[nH]nc(-c4nc5c(-c6cccnc6)cncc5[nH]4)c3n2)c1 [Compound 88, 5-(Pyridin-3-yl)-3-(7-(pyridin-3-yl)-3H-imidazo[4,5-c]pyridin-2-yl)-1H-pyrazolo[4,3-b]pyridine] | 84 | 30 |
| CC(C)C(=O)Nc1cncc(-c2ccc3[nH]nc(-c4nc5c(-c6cccnc6)cncc5[nH]4)c3n2)c1 [Compound 93, N-(5-(3-(7-(Pyridin-3-yl)-3H-imidazo[4,5-c]pyridin-2-yl)-1H-pyrazolo[4,3-b]pyridin-5-yl)pyridin-3-yl)isobutyramide] | 336 | 1670 |
| Cc1ccncc1-c1ccc2[nH]nc(-c3nc4c(-c5ccncc5)cncc4[nH]3)c2n1 [Compound 117, 5-(4-Methylpyridin-3-yl)-3-(7-(pyridin-4-yl)-3H-imidazo[4,5-c]pyridin-2-yl)-1H-pyrazolo[4,3-b]pyridine] | 68 | 30 |
| CCCC(=O)Nc1cncc(-c2ccc3[nH]nc(-c4nc5c(-c6ccncc6)cncc5[nH]4)c3n2)c1 [Compound 129, N-(5-(3-(7-(Pyridin-4-yl)-3H-imidazo[4,5-c]pyridin-2-yl)-1H-pyrazolo[4,3-b]pyridin-5-yl)pyridin-3-yl)butyramide] | 31 |  |
| CCNCc1cncc(-c2ccc3[nH]nc(-c4nc5c(-c6ccccn6)cncc5[nH]4)c3n2)c1 [Compound 146, N-((5-(3-(7-(Pyridin-2-yl)-3H-imidazo[4,5-c]pyridin-2-yl)-1H-pyrazolo[4,3-b]pyridin-5-yl)pyridin-3-yl)methyl)ethanamine] | 50 |  |
| CCCCC(=O)Nc1cncc(-c2ccc3[nH]nc(-c4nc5c(-c6ccccn6)cncc5[nH]4)c3n2)c1 [Compound 159, N-(5-(3-(7-(Pyridin-2-yl)-3H-imidazo[4,5-c]pyridin-2-yl)-1H-pyrazolo[4,3-b]pyridin-5-yl)pyridin-3-yl)pentanamide] | 86 | 30 |
| CCC(=O)Nc1cncc(-c2ccc3[nH]nc(-c4nc5c(N6CCCCC6)cncc5[nH]4)c3n2)c1 [Compound 169, N-(5-(3-(7-(Piperidin-1-yl)-3H-imidazo[4,5-c]pyridin-2-yl)-1H-pyrazolo[4,3-b]pyridin-5-yl)pyridin-3-yl)propionamide] | 70 | 900 |
| CN(C)Cc1cncc(-c2ccc3[nH]nc(-c4nc5c(N6CCCCC6)cncc5[nH]4)c3n2)c1 [Compound 181, N,N-Dimethyl-1-(5-(3-(7-(piperidin-1-yl)-3H-imidazo[4,5-c]pyridin-2-yl)-1H-pyrazolo[4,3-b]pyridin-5-yl)pyridin-3-yl)methanamine] | 84 | 900 |
| Cc1cn(-c2cncc3[nH]c(-c4n[nH]c5ccc(-c6cncc(NC(=O)CC(C)C)c6)nc45)nc23)cn1 [Compound 198, 3-Methyl-N-(5-(3-(7-(4-methyl-1H-imidazol-1-yl)-3H-imidazo[4,5-c]pyridin-2-yl)-1H-pyrazolo[4,3-b]pyridin-5-yl)pyridin-3-yl)butanamide] | 59 | 100 |
| Cc1cn(-c2cncc3[nH]c(-c4n[nH]c5ccc(-c6cncc(NC(=O)C(C)(C)C)c6)nc45)nc23)cn1 [Compound 204, N-(5-(3-(7-(4-methyl-1H-imidazol-1-yl)-3H-imidazo[4,5-c]pyridin-2-yl)-1H-pyrazolo[4,3-b]pyridin-5-yl)pyridin-3-yl)pivalamide] | 150 | 100 |
| Cc1cn(-c2cncc3[nH]c(-c4n[nH]c5ccc(-c6cncc(CN7CCCC7)c6)nc45)nc23)cn1 [Compound 210, 3-(7-(4-Methyl-1H-imidazol-1-yl)-3H-imidazo[4,5-c]pyridin-2-yl)-5-(5-(pyrrolidin-1-ylmethyl)pyridin-3-yl)-1H-pyrazolo[4,3-b]pyridine] | 65 | 2700 |
| Cc1cn(-c2cncc3[nH]c(-c4n[nH]c5ccc(-c6cncc(NC(=O)C7CCC7)c6)nc45)nc23)cn1 [Compound 217, N-(5-(3-(7-(4-Methyl-1H-imidazol-1-yl)-3H-imidazo[4,5-c]pyridin-2-yl)-1H-pyrazolo[4,3-b]pyridin-5-yl)pyridin-3-yl)cyclobutanecarboxamide] | 47 |  |
| CN1CCN(c2cncc3[nH]c(-c4n[nH]c5ccc(-c6cncc(N)c6)nc45)nc23)CC1 [Compound 227, 5-(3-(7-(4-Methylpiperazin-1-yl)-3H-imidazo[4,5-c]pyridin-2-yl)-1H-pyrazolo[4,3-b]pyridin-5-yl)pyridin-3-amine] | 65 | 30 |
| CC(C)C(=O)Nc1cncc(-c2ccc3[nH]nc(-c4nc5c(N6CCN(C)CC6)cncc5[nH]4)c3n2)c1 [Compound 233, N-(5-(3-(7-(4-Methylpiperazin-1-yl)-3H-imidazo[4,5-c]pyridin-2-yl)-1H-pyrazolo[4,3-b]pyridin-5-yl)pyridin-3-yl)isobutyramide] | 47 |  |
| CCNCc1cncc(-c2ccc3[nH]nc(-c4nc5c(-c6ccoc6)cncc5[nH]4)c3n2)c1 [Compound 286, N-((5-(3-(7-(Furan-3-yl)-3H-imidazo[4,5-c]pyridin-2-yl)-1H-pyrazolo[4,3-b]pyridin-5-yl)pyridin-3-yl)methyl)ethanamine] | 29 |  |
| CCCCC(=O)Nc1cncc(-c2ccc3[nH]nc(-c4nc5c(-c6ccoc6)cncc5[nH]4)c3n2)c1 [Compound 299, N-(5-(3-(7-(Furan-3-yl)-3H-imidazo[4,5-c]pyridin-2-yl)-1H-pyrazolo[4,3-b]pyridin-5-yl)pyridin-3-yl)pentanamide] | 74 | 10 |
